Paper PMC11969171 (Biomedicine & pharmacotherapy = Biomedecine & …, 2022)
Numbering of substitutions follows the chain as printed.

Columns and labels:
[1] = test system: corticostriatal glutamate release; conditions: rats, local application, ref [64]; cited from earlier work
A1R^wt [2] = target: T1, A1R^wt (Homo sapiens, UniProt P30542); conditions: CPA 200 nM
T1 sequence (P30542 1-326): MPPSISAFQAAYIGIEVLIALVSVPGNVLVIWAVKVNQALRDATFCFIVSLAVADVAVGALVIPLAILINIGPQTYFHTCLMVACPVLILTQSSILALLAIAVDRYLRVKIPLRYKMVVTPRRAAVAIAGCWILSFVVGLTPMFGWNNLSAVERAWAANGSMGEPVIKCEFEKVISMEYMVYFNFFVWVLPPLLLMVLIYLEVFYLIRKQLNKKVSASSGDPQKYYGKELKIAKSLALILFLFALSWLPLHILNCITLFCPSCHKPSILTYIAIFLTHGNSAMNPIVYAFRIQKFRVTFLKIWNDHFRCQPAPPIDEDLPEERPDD

A1R^G279S [3] = target: T2, A1R^G279S (Homo sapiens, UniProt P30542, G279S); conditions: CPA 200 nM
T2 sequence (P30542 1-326 G279S): T1 sequence (P30542 1-326) with G279S

A1R^wt [4] = target: T1, A1R^wt; format: binding; conditions: saturating concentration of DPCPX (1 µM)
A1R^G279S [5] = target: T2, A1R^G279S; format: binding; conditions: saturating concentration of DPCPX (1 µM)

## OCCN(CCO)c1nc(N2CCCCC2)c2nc(N(CCO)CCO)nc(N3CCCCC3)c2n1 [dipyridamole]
[1]
  basal and optogenetic-induced corticostriatal glutamate release: significant decrease

## OC[C@H]1O[C@@H](n2cnc3c(NC4CCCC4)ncnc32)[C@H](O)[C@@H]1O [CPA, N6-cyclopentyladenosine]
A1R^wt [2]
  functional coupling to Gα12/13, Gαs, β-arrestin2 or GRK2: No functional coupling
A1R^wt [2]; Gαi-LgBiT or Gαq-LgBiT, decline to basal after 1 h
  time to peak of NL-generated signal: 10 min
A1R^G279S [3]
  functional coupling to Gα12/13, Gαs, β-arrestin2 or GRK2: No functional coupling

## CCCn1c(=O)c2[nH]c(C3CCCC3)nc2n(CCC)c1=O [DPCPX, 8-cyclopentyl-1,3-dipropylxanthine]
A1R^wt [4]
  displacement of CA200634 binding: displaced
A1R^G279S [5]
  displacement of CA200634 binding: displaced
